Reference: patent US8993626B2, “Methods of treatment using sterculic acid” (The United States of America, as represented by the …, priority 2010, dated 2015)
“Also recorded” adds a separate entry of the source.

Columns and labels:
[1] = test system: stearoyl-CoA desaturase (SCD); assay: SCD mRNA expression (qRT-PCR); type: cell-based; conditions: 4 μM 7KCh, 24 hr
Protocol: FIGS. 18A and 18B depict (A) Dose response of SCD mRNA inductions by 0-12 μM 7KCh after 24 hr treatments. (B) The mRNA expressions of SCD in response to 8 μM 7KCh, 1 μM sterculic acid, 1 μM stearic acid, or the combinations of 7KCh with either sterculic acid or stearic acid. Error bars indicate the standard deviations. n=4.
(§1) The RNA was extracted using RNeasy Mini Kit (Qiagen, Valencia, Calif.). The reverse transcription was performed with reagents and kits from Invitrogen. Quantification of mRNA expression was performed using the Taqman gene expression assays and the following primers (VEGFa, Hs00173626_m1; IL-1β, Hs01555413_m1; IL-6, Hs00174131_m1; IL-8, Hs00174103_m1; IκBα, Hs00153283_m1; GRP78, Hs99999174_m1; CHOP, Hs01090850_m1; NOX2, Hs00166163_m1; NOX4, Hs01558199_m1; SCD, Hs00748952 s1; TNF-α, Hs00174128_m1; TGF-β1, Hs00998133_m1; GAPD, 4352934e). GAPD expression was used as an endogenous standard. All qRT-PCR experiments were measured in triplicates in an ABI 7500 Real-Time PCR Instrument (Applied Biosystems, Foster City, Calif.). The results of each treatment were normalized and presented in percentage relative to the vehicle-only control.
To determine the effect of 7KCh on SCD expression ARPE-19 cells were incubated with 4 μM 7KCh for 24 hr. 7KCh suppressed SCD mRNA expression by approximately 60-70% (FIG. 18A). […] Treatment of the cells with 8 μM 7KCh and 1 μM sterculic acid further suppress SCD expression to 86% (FIG. 18B). […] This is the only instance where 7KCh and sterculic acid worked synergistically rather than antagonistically.

ARPE-19 cells [2] = assay: qRT-PCR of inflammatory cytokines and ER stress markers, 7KCh-mediated inflammation; type: cell-based
Protocol: FIGS. 13A-13D depict mRNA expressions of (A) VEGF, (B) IL-6, (C) GRP78, and (D) CHOP in response to 8 μM 7KCh with or without 1 μM long-chain fatty acids. Error bars indicate the standard deviations. *p<0.05 comparing to 7KCh, n=3. Two-tailed Student's t-test.
(§2) FIGS. 14A-14D depict mRNA expressions of (A) VEGF, (B) IL-1b, (C) IL-6, and (D) IL-8 in response to 8 μM 7KCh, 1 μM sterculic acid, 1 μM stearic acid, or the combinations of 7KCh with either sterculic acid or stearic acid. Error bars indicate the standard deviations. *p<0.05 comparing to 7KCh, n=4. Two-tailed Student's t-test.
as §2, with “15A-15D” for “14A-14D”, “TNF-α,” for “VEGF,”, “TGF-β1,” for “IL-1b,”, “GRP78,” for “IL-6,”, “CHOP” for “IL-8”, “n=3-4.” for “n=4.”
(§3) ARPE-19 cells were seeded in 24-well plates with 1×10^5 cells per well and allowed to recover for 16-24 hr. Once confluency reached approximately 90%, the effect of the fatty acids against 7KCh-mediated cell death was examined 24 hr after incubation in serum-free medium with 12 μM 7KCh. Fatty acids were tested at 0.1, 0.5, 1, 5 and 10 μM concentrations. The effects of the fatty acids against 7KCh-mediated inflammation and ER stress were examined by incubating cells in 1 μM fatty acids with either 8 μM 7KCh (24 hr for quantitative real-time PCR (qRT-PCR), 24 and 48 hr for immunoblot), or 6 μM 7KCh for 48 hr (for ELISA). Three individual experiments were performed for each treatment with quadruplicate measurements performed for each experiment in 24-well plates.
as §1

ARPE-19 cells [3] = assay: ELISA of secreted VEGF, IL-6, IL-8 in conditioned medium; type: cell-based; conditions: 6 μM 7KCh alone or with 1 μM fatty acid, 48 hr
Protocol: FIGS. 16A-16E depict the secreted protein levels of (A) VEGF, (B) IL-6, and (C) IL-8 were measure by ELISA 48 hr after treatment with 6 μM 7KCh, 1 μM sterculic acid, 1 μM stearic acid, or the combinations of 7KCh with either sterculic acid or stearic acid. Error bars indicate the standard deviations. *p<0.05 comparing to 7KCh, n=3. Two-tailed Student's t-test. The expressions of GRP78 and CHOP were shown by immunoblots (D) 24 hr or (E) 48 hr after treatment with 8 μM 7KCh, 1 μM sterculic acid, 1 μM stearic acid, or the combinations of 7KCh with either sterculic acid or stearic acid.
as §3
The levels of secreted VEGF, IL-6, IL-8, and TNF-α in conditioned medium of ARPE-19 cell cultures were measured 48 hr after treatments of 6 μM 7KCh and 1 μM fatty acids using the Quantkine ELISA kits from R&D systems (Minneapolis, Minn.). The protein levels were measured in triplicates. The ELISA results were quantified using an Envision multilable plate reader (PerkinElmer, Covina, Calif.) and presented in percentage relative to the vehicle-only control.

[4] = 7-ketocholesterol-mediated cytotoxicity, 24-well CCK-8 viability; conditions: human
ARPE19 cells [5] = assay: CellTiter-Glo luminescent cell viability assay, 15 μM 7KCh-induced cytotoxicity; type: cell-based, human; conditions: 24 hr, CellTiter-Glo
Protocol: Error bar: standard deviation, n=4.
CellTiter-Glo® Luminescent Cell Viability Assay is a homogeneous method of determining the number of viable cells in culture based on quantitation of the ATP (luminescent signal) present, an indicator of metabolically active cells.
The contents in a plate were mixed for 2 min on an orbital shaker to induce cell lysis.
5) The plate was allowed to incubate at room temperature for 10 min to stabilize luminescent signal.

ARPE19 cells [6] = assay: Cell Counting Kit-8 viability assay, 15 μM 7KCh-induced cytotoxicity
Protocol: 4×10^4 cells were seeded onto wells of a 96 well plate. […] Cell viability was determined as celluar dehydrogenase activity and expressed as the percentage of compound treated cells relative to that of untreated controls. error bar: standard deviation, n=4.
The kit allows sensitive colorimetric assays for the determination of the number of viable cells in cell proliferation and cytotoxicity assays. The amount of the formazan dye generated by the activity of dehydrogenases in cells is directly proportional to the number of living cells.
1) Cells were cultivated in a 96 well cell plate (Costar#3599, Corning Incorp, Corning, N.Y.).
2) The cell suspension (40,000 cells/100 μL) were added to 100 μL culture media per well and stood for 15 min at room temperature and cultured at 37° C. in a humidified 5% CO2 atmosphere.
3) Approximately 19 hr after seeding, when the cells were fully confluent, the cells were treated with either DMSO or 1 μM fatty acid in 200 μL of serum free media and subsequently added with 15 μM 7KCh in HPBCD. Then, the plate was swirled for mixing. The cells were also treated with DMSO and HPBCD, which served as vehicle control. The final DMSO and HPBCD concentrations in the media were in the range of 0.1% and 0.0675%, respectively.
Cell viability was expressed as the percentage of compound treated cells relative to that of untreated controls. Prior to measure cell viability, the cells were imaged live by Nikon TE 2000-U inverted fluorescent microscope.

ARPE19 cells [7] = assay: 7-ketocholesterol-mediated cytotoxicity, 24-well CCK-8 viability and images; conditions: 24 hr
ARPE19 cells [8] = assay: Phase-contrast images of cells after co-treatment with 15 μM 7KCh; type: cell-based, human; conditions: 1 μM fatty acid + 15 μM 7KCh, 24 hr
From the text: FIG. 8 depicts phase-contrast images of ARPE19 cells at 24 hr after sterculic acid co-treatment with 7KCh.

ARPE19 cells [9] = assay: Microelectronic cell sensor assay (RT-CES), 7KCh-induced cytotoxicity; conditions: 1 μM fatty acid + 15 μM 7KCh, serum free media
Protocol: 4×10^4 cells were seeded onto wells of 16× microtiter plates. […] Cell viability was determined as a cell index (CI) calculated from the impedance of each well automatically by the RT-CES system once per hr until the end of the experiment. The data was normalized at the point immediately prior to compound treatment.
RT-CES® System is a cell-based assay system that monitors cellular events by measuring the electronic impedance of sensor electrodes integrated on the bottom of microtiter E-Plates. The presence of the cells will lead to an increase in the electrode impedance. The more cells attached to the sensor, the higher the impedance that could be monitored with RT-CES.
1) Cells were cultivated in the ACEA's 16X E-plate device containing microelectrodes at the bottom of each well to measure contact area and electrical properties of adherent cells. […]
4) Cell growth was monitored periodically (every 1 hr) for indicated durations via calculation of a “cell index” (reflect to the surface area covered by the cells) in each well. […]
6) The sensor devices were put into the incubator again and the cells were continuously monitored cellular status changes.
7) Cell viability was determined as a cell index (CI) calculated from the impedance of each well automatically by the RT-CES system once per hr until the end of the experiment. […]

ARPE-19 cells [10] = assay: Fatty acids against 7KCh-mediated cell death (CCK8); type: cell-based; conditions: 12 μM 7KCh for 24 hr; tested 0.1, 0.5, 1, 5 and 10 μM
Protocol: FIGS. 12A-12C depict ARPE-19 cell viability in response to 12 μM 7KCh with or without 0.1-5 μM (A) sterculic acid and (B) stearic acid after 24 hr treatments. Error bars indicate the standard deviations. n=3-5. Two-tailed Student's t-test. (C) Representative images of changes in cell morphology in response to 12 μM 7KCh with or without 1 μM sterculic acid and stearic acid after 24 hr treatments.
as §3
The cell viability was determined by the dehydrogenase activity of the ARPE-19 cells using Cell Counting Kit-8 (CCK8, Dojindo, Gaithersburg, Md.) according to manufacturer's protocol.
The lowest effective concentrations of fatty acids that offset the 7KCh-mediated cell death were determined. […] Table 3 lists the lowest concentrations of these fatty acids required to maintain full cell viability against 12 μM 7KCh treatment. All unsaturated fatty acids protected against 7KCh-induced cell death. […] DHA, α-linolenic, and linoleic acid prevented 7KCh-mediated cell death at 5 μM but the rest of unsaturated fatty acids and dihydrosterculic acid required 10 μM to be protective.

D407 cells = assay: 7-ketocholesterol-mediated cytotoxicity, 24-well CCK-8 viability; conditions: 5 μM co-treatment with 11 μM 7KCh, 24 hr

CC(C)CCC[C@@H](C)[C@H]1CC[C@H]2[C@@H]3C(=O)C=C4C[C@@H](O)CC[C@]4(C)[C@H]3CC[C@]12C [7KCh, 7-Ketocholesterol]
suppression of SCD mRNA expression [1]: 60-70% | VEGF mRNA expression (ARPE-19 cells [2]; 8 μM 7KCh alone or with 1 μM fatty acid, 24 hr, FIG. 13A): 4 fold | IL-6 mRNA expression (ARPE-19 cells [2]; 8 μM 7KCh alone or with 1 μM fatty acid, 24 hr, FIG. 13B): 22 fold | GRP78 mRNA expression (ARPE-19 cells [2]; 8 μM 7KCh alone or with 1 μM fatty acid, 24 hr, FIG. 13C): 4 fold | CHOP mRNA expression (ARPE-19 cells [2]; 8 μM 7KCh alone or with 1 μM fatty acid, 24 hr, FIG. 13D): 15 fold | induction of VEGF mRNA (ARPE-19 cells [2]; 8 μM 7KCh alone or with 1 μM fatty acid, FIG. 14A): 5.5 fold | induction of IL-1β mRNA (ARPE-19 cells [2]; 8 μM 7KCh alone or with 1 μM fatty acid, FIG. 14B): 6.7 fold | induction of IL-6 mRNA (ARPE-19 cells [2]; 8 μM 7KCh alone or with 1 μM fatty acid, FIG. 14C): 21 fold | induction of IL-8 mRNA (ARPE-19 cells [2]; 8 μM 7KCh alone or with 1 μM fatty acid, FIG. 14D): 4.7 fold | induction of TNF-α mRNA (ARPE-19 cells [2]; 8 μM 7KCh alone or with 1 μM fatty acid, FIG. 15A): 2.7 fold | induction of TGF-β1 mRNA (ARPE-19 cells [2]; 8 μM 7KCh alone or with 1 μM fatty acid, FIG. 15B): 1.3 fold | induction of GRP78 mRNA (ARPE-19 cells [2]; 8 μM 7KCh alone or with 1 μM fatty acid, FIG. 15C): 5.4 fold | induction of CHOP mRNA (ARPE-19 cells [2]; 8 μM 7KCh alone or with 1 μM fatty acid, FIG. 15D): 12 fold | secreted IL-6 protein expression (ARPE-19 cells [3]): 1.8 fold | secreted IL-8 protein expression (ARPE-19 cells [3]): 1.7 fold | secreted VEGF protein expression (ARPE-19 cells [3]): 1.6 fold | CC50 at 24 h [4]: 11 µM | loss in cell viability (ARPE19 cells [5]; 15 μM 7KCh): 40-50% | loss in cell viability (ARPE19 cells [6]; 15 μM 7KCh, 24 hr, CCK-8): 50-60%

CCCCCCCC/C=C\CCCCCCCC(=O)O [oleic acid]
protection of cell confluency and morphology (images) (ARPE19 cells [7]; 0.5 μM co-treatment with 12 μM 7KCh): no effect | protection of cell confluency and morphology (images) (ARPE19 cells [7]; 1 μM co-treatment with 12 μM 7KCh): slight effect; also recorded: do not have such protection effect | protection effect at 5 μM (ARPE19 cells [7]; 5 μM co-treatment with 12 μM 7KCh): slight effect; also recorded: slight protection | effect on 7KCh-mediated mRNA induction (inflammatory response) (ARPE-19 cells [2]; 1 μM fatty acid + 8 μM 7KCh, 24 hr, FIG. 13): either ineffective or enhanced | cell morphological changes compared to 7KCh alone (ARPE19 cells [8]): more cells compared to 7KCh alone | protection from 7KCh induced cytotoxicity (cell index) (ARPE19 cells [9]): slight protective effect | CONC. (μM): lowest concentration required to maintain full cell viability against 7KCh (ARPE-19 cells [10]): 10 µM | protection effect at 5 μM (D407 cells): slight effect; also recorded: not as significant comparing to sterculic acid | increase of cell viability compared to 7KCh alone treatment (ARPE19 cells [5]; 1 μM fatty acid + 15 μM 7KCh): 10% | protective effect against cytotoxicity by 7KCh (summary of the viability assays) (ARPE19 cells [6]; 1 μM fatty acid + 15 μM 7KCh): slight protective effect | increase of cell viability compared to 7KCh alone treatment (ARPE19 cells [6]; 1 μM fatty acid + 15 μM 7KCh, 24 hr, CCK-8): 10%
